Assay results published in patent publication US4278658A, “Deodorant composition” (priority 1978, dated 1981).

What was measured:
[1] = molecular target: T1, lipoxidase (ECl.12.1.13) (Glycine max, UniProt P08170); assay: Lipoxidase test: inhibition of oxidation of linoleic acid by lipoxidase; format: biochemical; parameters: inhibition: concentration or dose not given beside the values; conditions: for inhibition / inhibition at 0.5 % strength: read-out: LIC (lipoxidase inhibiting capacity)
T1 sequence (P08170 1-839): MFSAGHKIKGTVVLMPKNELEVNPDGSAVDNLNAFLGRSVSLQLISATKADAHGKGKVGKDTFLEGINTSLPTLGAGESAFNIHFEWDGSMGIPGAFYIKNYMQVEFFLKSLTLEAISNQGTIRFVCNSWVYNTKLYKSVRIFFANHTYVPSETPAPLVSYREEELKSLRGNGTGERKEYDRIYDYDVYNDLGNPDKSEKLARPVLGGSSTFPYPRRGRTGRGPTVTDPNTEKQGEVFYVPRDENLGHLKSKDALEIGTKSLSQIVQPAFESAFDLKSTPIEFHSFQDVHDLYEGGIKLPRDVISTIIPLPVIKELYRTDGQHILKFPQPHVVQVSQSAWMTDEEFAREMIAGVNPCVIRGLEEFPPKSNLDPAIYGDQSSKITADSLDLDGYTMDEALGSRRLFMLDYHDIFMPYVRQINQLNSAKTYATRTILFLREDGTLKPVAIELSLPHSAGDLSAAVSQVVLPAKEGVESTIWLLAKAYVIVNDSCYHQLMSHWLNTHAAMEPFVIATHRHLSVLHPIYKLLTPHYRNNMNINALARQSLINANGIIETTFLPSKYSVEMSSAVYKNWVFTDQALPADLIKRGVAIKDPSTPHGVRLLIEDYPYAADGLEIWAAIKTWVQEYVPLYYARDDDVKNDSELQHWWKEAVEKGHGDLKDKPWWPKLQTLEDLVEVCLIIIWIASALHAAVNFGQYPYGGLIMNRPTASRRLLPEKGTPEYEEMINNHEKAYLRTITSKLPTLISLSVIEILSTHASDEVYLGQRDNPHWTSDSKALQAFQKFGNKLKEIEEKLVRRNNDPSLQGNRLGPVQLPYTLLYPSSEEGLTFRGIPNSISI

[2] = Morpholine test: depression of the partial vapour pressure of morpholine beyond Raoult's Law; conditions: morpholine 0.25 g + material 1 g, 37° C., 30 minutes, headspace GC
[3] = % inhibition = 100 (S1-S2)/S1, 0.5% by weight solution of material in ethanol in test substrate, borate buffer pH 9.0, 234 nm

Q: Which inhibition ([1]; pH 9) does the source give for `CC1COCc2cc3c(cc21)C(C)(C)C(C)C3(C)C` (stereo not drawn) [1,3,4,6,7,8-Hexahydro-4,6,6,7,8,8-hexamethyl cyclopenta-α-2-benzopyran] here?
A: 100%

Q: Which “RVR (Raoult variance ratio)” value [2] does the source give for `CCCCCCCC1CCCC1=O` (stereo not drawn) [2-n-Heptylcyclopentanone] here?
A: 1.05

Q: What about the inhibition ([1]; pH 9) of the same molecule?
A: 56%

Q: For `CC1(C)CCCC2(C)C1CCC1(C)OCCC12` (stereo not drawn) [3a-Methyl-dodecahydro-6,6,9a-trimethylnaphtho(2,1-b)furan], which “RVR (Raoult variance ratio)” value [2] is on record?
A: 1.30

Q: What about the inhibition ([1]; pH 9) of the same molecule?
A: 58%

Q: What does the source list for `O=C(OCc1ccccc1)c1ccccc1O` [Benzyl salicylate]?
A: RVR (Raoult variance ratio) [2]: 1.58; inhibition at 0.5 % strength ([1]; pH 9): 0%

Q: With `Cc1ccc(C(C)C)cc1O` [Carvacrol] as the molecule, how does the “RVR (Raoult variance ratio)” value [2] read?
A: 1.43

Q: And the inhibition at 0.5 % strength ([1]; pH 9)?
A: 32%

Q: Which results are given for `O=c1ccc2ccccc2o1` [Coumarin]?
A: RVR (Raoult variance ratio) [2]: 1.22; inhibition ([1]; pH 9): 58%

Q: What does the source list for `CCOC(=O)c1ccccc1C(=O)OCC` [Diethyl phthalate]?
A: RVR (Raoult variance ratio) [2]: 1.20; inhibition at 0.5 % strength ([1]; pH 9): 79%

Q: For `CCOc1cc(C=O)ccc1O` [Ethyl vanillin], which “RVR (Raoult variance ratio)” value [2] is on record?
A: 1.43

Q: What about the inhibition at 0.5 % strength ([1]; pH 9) of the same molecule?
A: 100%

Q: What does the source list for `CCCCCCC(CCOC(C)=O)OC(C)=O` (stereo not drawn) [Nonanediol-1,3-diacetate]?
A: RVR (Raoult variance ratio) [2]: 1.17; inhibition ([1]; pH 9): 33%

Q: Which results are given for `CCCCCC1CCC(=O)O1` (stereo not drawn) [Nonanolide-1:4]?
A: RVR (Raoult variance ratio) [2]: 0.87; inhibition ([1]; pH 9): 92%

Q: For `OCCc1ccccc1` [Phenylethyl alcohol], which “RVR (Raoult variance ratio)” value [2] is on record?
A: 1.24

Q: What about the inhibition ([1]; pH 9) of the same molecule?
A: 22%

Q: What does the source list for `CC(C)CCOC(=O)c1ccccc1O` [iso-Amyl salicylate]?
A: RVR (Raoult variance ratio) [2]: 1.24; inhibition ([1]; pH 9): 95%

Q: For `C/C=C\c1ccc(O)c(OC)c1` [iso-Eugenol], which “RVR (Raoult variance ratio)” value [2] is on record?
A: 1.48

Q: What about the inhibition at 0.5 % strength ([1]; pH 9) of the same molecule?
A: 100%

Q: With `CC(=O)OC1CCCCC1C(C)(C)C` (stereo not drawn) [o-t-Butylcyclohexyl acetate] as the molecule, how does the “RVR (Raoult variance ratio)” value [2] read?
A: 1.08

Q: And the inhibition ([1]; pH 9)?
A: 52%

Q: Which “RVR (Raoult variance ratio)” value [2] does the source give for `CCC(C)(C)C1CCC(=O)CC1` [p-t-Amyl cyclohexanone] here?
A: 1.10

Q: And the inhibition ([1]; pH 9)?
A: 50%

Q: For `CC(C=O)Cc1ccc(C(C)(C)C)cc1` (stereo not drawn) [p-t-Butyl-α-methyl hydrocinnamic aldehyde], which inhibition ([1]; pH 9) is on record?
A: 74%

Q: Which results are given for `CC(=O)OC1CCC(C(C)(C)C)CC1` (stereo not drawn) [p-t-Butylcyclohexyl acetate]?
A: RVR (Raoult variance ratio) [2]: 0.98; inhibition ([1]; pH 9): 54%

Q: Which “RVR (Raoult variance ratio)” value [2] does the source give for `CC(=O)c1ccc2ccccc2c1` [β-Methyl naphthyl ketone] here?
A: 0.96

Q: And the inhibition at 0.5 % strength ([1]; pH 9)?
A: 100%

Q: With Dimyrcetol as the molecule, how does the “RVR (Raoult variance ratio)” value [2] read?
A: 1.22

Q: What about the “LIC (lipoxidase inhibiting capacity)” value [1, 3] of the same molecule?
A: 16%

Q: For Tetrahydromuguol, which “RVR (Raoult variance ratio)” value [2] is on record?
A: 1.23

Q: And the “LIC (lipoxidase inhibiting capacity)” value ([1]; pH 9)?
A: 24%

Q: For i-Nonyl acetate, which “RVR (Raoult variance ratio)” value [2] is on record?
A: 0.83

Q: And the “LIC (lipoxidase inhibiting capacity)” value [1, 3]?
A: 50%

Q: With i-Nonyl formate as the molecule, how does the “RVR (Raoult variance ratio)” value [2] read?
A: 1.49

Q: And the “LIC (lipoxidase inhibiting capacity)” value ([1]; pH 9)?
A: 19%
